Reference: patent publication EP4685142A1, “TRIAZINE COMPOUND AND USE THEREOF” (Chengdu Zenitar Biomedical Technology Co., Ltd., priority 2023, dated 2024)
Read-outs that look alike come from different tables or passages of the source.

Assays:
[1] = molecular target: T1, hERG potassium ion channel (Homo sapiens, UniProt Q12809)
Description: (§1) Inhibition experiment of compounds on hERG potassium ion channel
(§2) Cell culture and treatment: CHO cells stably expressing hERG were cultured in cell culture flasks and incubated in a 5% CO2 incubator at 37°C. When a cell density reached 60%-80%, the cell culture medium was aspirated, washed once with PBS, and then digested with Detachin. After digestion, the grown cells were neutralized in the cell culture medium, and then centrifuged, the supernatant was aspirated, the cell culture medium was added again to resuspend the grown cells, and the cell density was adjusted to 2-5×10^6 cells/mL for later use.
(§3) Compound preparation: the compound stock solution was diluted in 100% DMSO, that is, 10 µL compound stock solution was serially diluted in 20 µL DMSO by 3 folds to obtain six concentrations. Six concentrations of the compound (4 µL for each concentration) were diluted in 396 µL extracellular fluid by 100 folds to obtain six intermediate concentrations. Six intermediate concentrations of the compound (80 µL for each concentration) were diluted in 320 µL extracellular fluid by 5 folds to obtain final concentrations to be tested. […] DMSO in a final test concentration was not more than 0.2%, and DMSO at this concentration had no effect on the hERG potassium channel. The entire dilution process for compound preparation was performed using Bravo instrument.
(§4) Electrophysiological recording process: the processes of single-celled high-impedance sealing and whole-cell mode formation were all automatically completed by Qpatch instrument, under the whole-cell recording mode, the cells were clamped at -80 mV, before 5-second + 40 mV depolarization stimulus, the cells were given 50-millisecond - 50 mV pre-voltage, followed by repolarization to -50 mV for 5 seconds, and then returning to -80 mV. The voltage stimulus was given every 15 seconds, after 2 minutes of recording, extracellular fluid was recorded for 5 min, and then a drug was administrated, started from a lowest test concentration, each test concentration of the compound was given for 2.5 minutes, after all concentrations were given consecutively, a positive control compound Cisapride (3 µM) was given. At least 3 cells were tested for each concentration (n≥3).
(§5) Data processing: data analysis and processing were performed using GraphPad Prism 5.0 and Excel software. IC50 values of the compounds were calculated by fitting with the following equation using GraphPad Prism 5 software: Y = Bottom + (Top−Bottom)/(1+10^(∧)((LogIC50−X)*HillSlope)); [formula] where X is the Log value of the test sample concentration, Y is an inhibition percentage at a corresponding concentration, and Bottom and Top are the minimum and maximum inhibition percentages, respectively.

[2] = Pharmacokinetic evaluation in Balb/c mice; type: in vivo; conditions: mouse, in vivo, 5 mg/kg
Source text: 4. Pharmacokinetic evaluation of compounds in Balb/c mice
Experimental purpose: to understand pharmacokinetic properties of the compounds.
Experimental basis: Technical Guidelines for Nonclinical Pharmacokinetic Studies of Chemical Drugs, 2014.
Experimental protocol: the pharmacokinetic properties of the compounds were investigated via intravenous administration and intragastric administration in Balb/c mice.
The blood drug concentration was quantitatively analyzed by LC-MS/MS, and pharmacokinetic parameters were calculated, such as peak concentration (Cmax), area under the concentration-time curve (AUC(0-t)), half-life (T1/2), clearance (CL), volume of distribution at steady state (Vdss), and bioavailability (F).
The results of pharmacokinetic evaluation are shown in Table 5 below: Table 5 Pharmacokinetic test results of compounds in Balb/c mice

[3] = molecular target: T1, hERG potassium ion channel; test: Inhibition of hERG potassium ion channel (CHO cells stably expressing hERG, Qpatch)
Description: as §1, §2, §3, §4, §5

[4] = molecular target: T2, NLRP3 inflammasome (Homo sapiens, UniProt Q96P20); test: Inhibitory activity of NLRP3 inflammasome in human monocytes (THP-1 cells, LPS + Nigericin, IL-1β ELISA); type: cell-based
T2 construct: host or cells: THP-1 cells
T2 sequence (Q96P20 whole entry): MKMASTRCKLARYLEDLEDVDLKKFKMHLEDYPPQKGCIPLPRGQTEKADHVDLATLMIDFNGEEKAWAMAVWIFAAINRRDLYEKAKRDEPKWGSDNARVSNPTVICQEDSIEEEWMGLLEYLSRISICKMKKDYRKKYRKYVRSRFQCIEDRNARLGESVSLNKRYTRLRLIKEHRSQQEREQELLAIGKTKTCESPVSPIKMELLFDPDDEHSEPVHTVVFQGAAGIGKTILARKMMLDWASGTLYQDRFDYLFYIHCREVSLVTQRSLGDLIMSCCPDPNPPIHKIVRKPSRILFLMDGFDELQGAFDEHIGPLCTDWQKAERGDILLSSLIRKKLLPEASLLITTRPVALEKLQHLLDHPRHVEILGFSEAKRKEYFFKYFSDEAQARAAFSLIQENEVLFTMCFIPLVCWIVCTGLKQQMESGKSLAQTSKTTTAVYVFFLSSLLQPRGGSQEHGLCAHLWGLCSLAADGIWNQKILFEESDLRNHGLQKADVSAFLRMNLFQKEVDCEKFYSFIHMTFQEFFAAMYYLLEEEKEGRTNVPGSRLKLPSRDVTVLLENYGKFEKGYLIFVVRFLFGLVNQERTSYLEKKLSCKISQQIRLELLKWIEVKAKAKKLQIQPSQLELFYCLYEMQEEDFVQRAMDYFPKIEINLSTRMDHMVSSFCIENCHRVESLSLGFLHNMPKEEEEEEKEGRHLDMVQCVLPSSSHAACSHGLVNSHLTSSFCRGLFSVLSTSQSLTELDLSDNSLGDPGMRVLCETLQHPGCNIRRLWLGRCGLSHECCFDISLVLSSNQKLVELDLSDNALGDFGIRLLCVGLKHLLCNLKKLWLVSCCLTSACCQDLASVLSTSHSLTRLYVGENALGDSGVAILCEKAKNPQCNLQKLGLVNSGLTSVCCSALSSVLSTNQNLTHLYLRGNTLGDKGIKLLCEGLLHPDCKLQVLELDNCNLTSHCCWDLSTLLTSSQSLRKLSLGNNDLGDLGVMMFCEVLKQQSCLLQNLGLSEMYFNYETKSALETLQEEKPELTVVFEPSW
Description: 1. Determination of inhibitory activity of NLRP3 inflammasome in human monocytes
Experimental method: THP-1 cells were cultured in RPMI culture medium containing PMA (10 µM), and then inoculated in 48-well plates at a density of 2×10^5 cells/mL, the plates were incubated overnight in a 5% CO2 incubator at 37°C. The next day, the above culture medium was replaced with Opti-MEM culture medium containing 1 µg/mL LPS. After 3 hours, the grown cells were simulated for 40 min with a drug, and then simulated for 40 min with Nigericin (10 µM), and a cell supernatant was harvested for ELISA analysis.
Table 2 Inhibitory activity of NLRP3 inflammasome

[5] = In vivo distribution of cerebrospinal fluid and plasma; conditions: for concentration at 0.25 h / concentration at 2 h: male, iv, 5 mg/kg; for Cerebrospinal fluid / Plasma: intravenous 5 mg/kg, n=1
Description: Evaluation of in vivo distribution of cerebrospinal fluid and plasma after compound administration
Experimental procedure: the compound was weighed, followed by adding a small amount of DMSO and then adding a sodium chloride solution for injection, to prepare a 5 mg·mL^-1 compound solution for administration. […] Standard curve range: 1-1000 ng·mL^-1.

[6] = test system: LPS-induced mice; test: LPS-induced mouse model, survival; type: in vivo, Balb/c mice; conditions: for 72h Survival rate: 25 mg/kg oral, 1 h before 10 mg/kg LPS i.p.; for survival status of mice (mice alive) 12h / survival status of mice (mice alive) 24h / survival status of mice (mice alive) 36h / survival status of mice (mice alive) 48h / survival status of mice (mice alive) 72h: 25 mg/kg
[7] = In vivo brain-to-plasma ratio in mice; conditions: for Plasma: male mice, oral 10 mg/kg
[8] = PO, Balb/c mice, read-out: AUC(0-t)
[9] = PO, Balb/c mice, read-out: Cmax
[10] = PO, Balb/c mice, read-out: T1/2 (converted)
[11] = THP-1 cells, PMA, LPS 1 µg/mL 3 h, drug 40 min, Nigericin 10 µM 40 min, IL-1β ELISA, read-out: IC50

T1 sequence (Q12809 whole entry): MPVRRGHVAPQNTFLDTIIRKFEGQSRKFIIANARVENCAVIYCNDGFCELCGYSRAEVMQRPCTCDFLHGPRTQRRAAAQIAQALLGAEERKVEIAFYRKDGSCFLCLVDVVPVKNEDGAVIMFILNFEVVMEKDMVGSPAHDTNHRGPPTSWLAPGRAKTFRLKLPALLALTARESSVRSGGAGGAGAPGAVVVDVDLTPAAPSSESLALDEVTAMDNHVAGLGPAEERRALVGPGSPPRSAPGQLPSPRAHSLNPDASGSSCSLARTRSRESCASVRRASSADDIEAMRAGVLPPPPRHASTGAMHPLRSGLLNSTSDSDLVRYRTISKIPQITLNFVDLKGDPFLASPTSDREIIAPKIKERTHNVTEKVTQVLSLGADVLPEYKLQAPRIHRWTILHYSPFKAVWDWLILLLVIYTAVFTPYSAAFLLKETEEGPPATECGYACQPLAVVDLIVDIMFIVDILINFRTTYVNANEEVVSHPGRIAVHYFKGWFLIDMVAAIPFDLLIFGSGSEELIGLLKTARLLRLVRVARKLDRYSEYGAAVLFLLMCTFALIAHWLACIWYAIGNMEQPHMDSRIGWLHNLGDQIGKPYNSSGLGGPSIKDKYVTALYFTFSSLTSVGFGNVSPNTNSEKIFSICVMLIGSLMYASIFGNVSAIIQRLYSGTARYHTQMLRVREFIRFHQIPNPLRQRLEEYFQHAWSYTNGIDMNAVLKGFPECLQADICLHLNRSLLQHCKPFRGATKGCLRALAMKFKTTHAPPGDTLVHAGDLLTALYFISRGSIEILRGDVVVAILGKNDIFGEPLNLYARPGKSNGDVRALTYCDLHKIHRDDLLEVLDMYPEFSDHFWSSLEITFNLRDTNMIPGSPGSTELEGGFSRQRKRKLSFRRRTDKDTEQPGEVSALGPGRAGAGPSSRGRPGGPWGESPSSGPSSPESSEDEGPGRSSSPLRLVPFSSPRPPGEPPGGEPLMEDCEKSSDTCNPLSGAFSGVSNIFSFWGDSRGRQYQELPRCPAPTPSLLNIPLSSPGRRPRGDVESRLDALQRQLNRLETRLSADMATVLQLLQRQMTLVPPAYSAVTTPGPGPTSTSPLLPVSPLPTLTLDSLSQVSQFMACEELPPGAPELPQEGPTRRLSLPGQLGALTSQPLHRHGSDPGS

In the case of CC(C)n1c(-c2ccc3sccc3c2O)nnc(N[C@@H]2CCCN(C)C2)c1=O [Compound 54, (R)-3-(4-hydroxybenzo[b]thiophen-5-yl)-4-isopropyl-6-((1-methylpiperidin-3-yl)amino)-1,2,4-triazin-5(4H)-ketone], the “20 uM Inhibition ratio” value [1] is reported as 7.77%, the “inhibitory effects on the hERG potassium ion channel (conclusion in words)” value (shortened to “inhibitory effects”) [1] is reported as “Conclusion: compounds 3, 4, 5, 9, 16, 17, 24, 30, 40, 41, 42, 43, 54 and others have weak inhibitory effects on the hERG potassium ion channel, having weaker inhibitory effect than the reference compound Ref-1” and the AUC(0-t) [2, 8] is reported as 7470 ng·h/mL. For the same compound, the Cmax [2, 9] was 1550 ng/mL and the half-life [2, 10] was 4.25 h.
With CCN1C[C@H](F)C[C@@H](Nc2nnc(-c3ccc4sccc4c3O)n(CC)c2=O)C1 [Compound 42, 4-ethyl-6-(((3R,5R)-1-ethyl-5-fluoropiperidin-3-yl)amino)-3-(4-hydroxybenzo[b]thiophen-5-y 1)-1,2,4-triazin-5(4H)-ketone] the “20 uM Inhibition ratio” value [3] was 14.98%, the “inhibitory effects” value ([1]; human) was “Conclusion: compounds 3, 4, 5, 9, 16, 17, 24, 30, 40, 41, 42, 43, 54 and others have weak inhibitory effects on the hERG potassium ion channel, having weaker inhibitory effect than the reference compound Ref-1” and the AUC(0-t) ([2]; male, Balb/c, po) was 2500 ng·h/mL. The Cmax ([2]; male, Balb/c, po) was 2700 ng/mL, the half-life ([2]; male, Balb/c, po) was 1.61 h and the IC50 [4, 11] was 4.76 nM. The concentration at 0.25 h ([5]; mouse, cerebrospinal fluid) was 35 ng/g, the concentration at 2 h ([5]; mouse, cerebrospinal fluid) was 1 ng/g and the concentration at 0.25 h ([5]; mouse, plasma) was 965 ng/mL. It also gave a concentration at 2 h ([5]; mouse, plasma) of 46 ng/mL.
For Cn1c(-c2ccc3sccc3c2O)nnc(N[C@@H]2CCCC[C@H]2O)c1=O [Compound 30, 3-(4-hydroxybenzo[b]thiophen-5-yl)-6-(((1R,2R)-2-hydroxycyclohexyl)amino)-4-methyl-1,2,4-triazin-5(4H)-ketone.], the “20 uM Inhibition ratio” value [3] was 1.70%, the “inhibitory effects” value ([1]; human) was “Conclusion: compounds 3, 4, 5, 9, 16, 17, 24, 30, 40, 41, 42, 43, 54 and others have weak inhibitory effects on the hERG potassium ion channel, having weaker inhibitory effect than the reference compound Ref-1” and the AUC(0-t) ([2]; male, Balb/c, po) was 4380 ng·h/mL. The Cmax ([2]; male, Balb/c, po) was 9810 ng/mL, the half-life ([2]; male, Balb/c, po) was 0.19 h and the IC50 [4, 11] was 1.97 nM.
In the case of CCN1C[C@H](F)C[C@@H](Nc2nnc(-c3ccc4sccc4c3O)n(C)c2=O)C1 [Compound 41, 6-(((3R,5R)-1-ethyl-5-fluoropiperidin-3-yl)amino)-3-(4-hydroxybenzo[b]thiophen-5-yl)-4-me thyl-1,2,4-triazin-5(4H)-ketone], the “20 uM Inhibition ratio” value [3] is reported as 13.31%, the “72h Survival rate” value [6] is reported as 100% and the “survival status of mice (mice alive) 12h” value ([6]; First cage (5 mice)) is reported as 5. For the same compound, the “survival status of mice (mice alive) 24h” value ([6]; First cage (5 mice)) was 5, the “survival status of mice (mice alive) 36h” value ([6]; First cage (5 mice)) was 5 and the “survival status of mice (mice alive) 48h” value ([6]; First cage (5 mice)) was 5. The “survival status of mice (mice alive) 72h” value ([6]; First cage (5 mice)) was 5, the “survival status of mice (mice alive) 12h” value ([6]; Second cage (5 mice)) was 5 and the “survival status of mice (mice alive) 24h” value ([6]; Second cage (5 mice)) was 5. For the same compound, the “survival status of mice (mice alive) 36h” value ([6]; Second cage (5 mice)) was 5, the “survival status of mice (mice alive) 48h” value ([6]; Second cage (5 mice)) was 5 and the “survival status of mice (mice alive) 72h” value ([6]; Second cage (5 mice)) was 5. The “inhibitory effects” value [1] was “Conclusion: compounds 3, 4, 5, 9, 16, 17, 24, 30, 40, 41, 42, 43, 54 and others have weak inhibitory effects on the hERG potassium ion channel, having weaker inhibitory effect than the reference compound Ref-1”, the IC50 [4] was 2.02 nM and the Cerebrospinal fluid ([5]; 0.25h) was 67 ng/g. It also gave a Plasma ([5]; 0.25h) of 668 ng/mL, a Cerebrospinal fluid ([5]; 2h) of 1 ng/g and a Plasma ([5]; 2h) of 38 ng/mL.
In the case of Cn1c(-c2ccc3sccc3c2O)nnc(N[C@@H]2CCCN(CCO)C2)c1=O [Compound 9, (R)-3-(4-hydroxybenzo[b]thiophen-5-yl)-6-((1-(2-hydroxyethyl)piperidin-3-yl)amino)-4-methyl-1,2,4-triazin-5(4H)-ketone], the “20 uM Inhibition ratio” value [3] is reported as 8.83%, the Plasma ([7]; 1 h) is reported as 1830 ng/mL and the Plasma ([7]; 6 h) is reported as 46 ng/mL. The Kp at 1 h ([7]; mouse, brain, po, 10 mg/kg) was 0.04, the Kp at 6 h ([7]; mouse, brain, po, 10 mg/kg) was 0.46 and the “72h Survival rate” value [6] was 70%. The “survival status of mice (mice alive) 12h” value ([6]; First cage (5 mice)) was 5, the “survival status of mice (mice alive) 24h” value ([6]; First cage (5 mice)) was 5 and the “survival status of mice (mice alive) 36h” value ([6]; First cage (5 mice)) was 5. For the same compound, the “survival status of mice (mice alive) 48h” value ([6]; First cage (5 mice)) was 5, the “survival status of mice (mice alive) 72h” value ([6]; First cage (5 mice)) was 3 and the “survival status of mice (mice alive) 12h” value ([6]; Second cage (5 mice)) was 5. The “survival status of mice (mice alive) 24h” value ([6]; Second cage (5 mice)) was 5, the “survival status of mice (mice alive) 36h” value ([6]; Second cage (5 mice)) was 5 and the “survival status of mice (mice alive) 48h” value ([6]; Second cage (5 mice)) was 5. For the same compound, the “survival status of mice (mice alive) 72h” value ([6]; Second cage (5 mice)) was 4, the “inhibitory effects” value [1] was “Conclusion: compounds 3, 4, 5, 9, 16, 17, 24, 30, 40, 41, 42, 43, 54 and others have weak inhibitory effects on the hERG potassium ion channel, having weaker inhibitory effect than the reference compound Ref-1” and the AUC(0-t) [2, 8] was 4400 ng·h/mL. The Cmax [2, 9] was 2280 ng/mL, the half-life [2, 10] was 0.85 h and the IC50 [4] was 3.95 nM.
In the case of CCn1c(-c2ccc3sccc3c2O)nnc(N[C@@H]2C[C@@H](F)CN(C)C2)c1=O [Compound 43, 4-ethyl-6-(((3R,5R)-5-fluoro-1-methylpiperidin-3-yl)amino)-3-(4-hydroxybenzo[b]thiophen-5-yl)-1,2,4-triazin-5(4H)-ketone], the “20 uM Inhibition ratio” value [3] is reported as 14.23%, the “inhibitory effects” value [1] is reported as “Conclusion: compounds 3, 4, 5, 9, 16, 17, 24, 30, 40, 41, 42, 43, 54 and others have weak inhibitory effects on the hERG potassium ion channel, having weaker inhibitory effect than the reference compound Ref-1” and the AUC(0-t) [2, 8] is reported as 15700 ng·h/mL. It also gave a Cmax [2, 9] of 5070 ng/mL, a half-life [2, 10] of 2.25 h and an IC50 [4] of 5.66 nM. For the same compound, the Cerebrospinal fluid ([5]; 0.25h) was 151 ng/g, the Plasma ([5]; 0.25h) was 6797 ng/mL and the Cerebrospinal fluid ([5]; 2h) was 40 ng/g. For the same compound, the Plasma ([5]; 2h) was 1911 ng/mL and the “distribution concentrations in cerebrospinal fluid / brain penetration potential (conclusion in words)” value ([5]; mouse, in vivo) was “Conclusion: some compounds of the present invention have good brain penetration potential, and particularly, compounds 40, 43 and others have high distribution concentrations in cerebrospinal fluid”.
In the case of Cn1c(-c2ccc3sccc3c2O)nnc(N[C@@H]2CCCN(C3CC3)C2)c1=O [Compound 16, (R)-6-((1-cyclopropylpiperidin-3-yl)amino)-3-(4-hydroxybenzo[b]thiophen-5-yl)-4-methyl-1,2,4-triazin-5(4H)-ketone], the “20 uM Inhibition ratio” value [3] is reported as 35.63%, the “inhibitory effects” value ([1]; human) is reported as “Conclusion: compounds 3, 4, 5, 9, 16, 17, 24, 30, 40, 41, 42, 43, 54 and others have weak inhibitory effects on the hERG potassium ion channel, having weaker inhibitory effect than the reference compound Ref-1” and the IC50 [4, 11] is reported as 1.62 nM.
For C#Cc1ccc(-c2nnc(N[C@@H]3CCCN(C)C3)c(=O)n2C)c(O)c1 [Compound 24, (R)-3-(4-ethynyl-2-hydroxyphenyl)-4-methyl-6-((1-methylpiperidin-3-yl)amino)-1,2,4-triazin-5(4H)-ketone], the “20 uM Inhibition ratio” value [3] was 6.83%, the “inhibitory effects” value ([1]; human) was “Conclusion: compounds 3, 4, 5, 9, 16, 17, 24, 30, 40, 41, 42, 43, 54 and others have weak inhibitory effects on the hERG potassium ion channel, having weaker inhibitory effect than the reference compound Ref-1” and the IC50 [4, 11] was 12 nM.
In the case of Cn1c(-c2ccc3sccc3c2O)nnc(N[C@@H]2CCCN(C3CC(F)(F)C3)C2)c1=O [Compound 5, (R)-6-((1-(3,3-difluorocyclobutyl)piperidin-3-yl)amino)-3-(4-hydroxybenzo[b]thiophen-5-yl)-4-methyl-1,2,4-triazin-5(4H)-ketone], the “20 uM Inhibition ratio” value [3] is reported as 19.97%, the “inhibitory effects” value ([1]; human) is reported as “Conclusion: compounds 3, 4, 5, 9, 16, 17, 24, 30, 40, 41, 42, 43, 54 and others have weak inhibitory effects on the hERG potassium ion channel, having weaker inhibitory effect than the reference compound Ref-1” and the IC50 [4, 11] is reported as 3.56 nM.
